Measurements: ChEMBL document CHEMBL1201862, “PubChem BioAssay data set” (2004)
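Step 1: Grow cells in 96-well plates. Step 2: Expose to compound for 48 hours at 5 concentrations. Step 3: Interpolate endpoints linearly; if unreached, use highest concentration. The concentration for 50% growth inhibition is given as GI50.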 Calls of active or inactive are those of the source. Cut-off read from the data, not from the text of the source: active = GI50 up to about 1.1 µM and inactive = higher.

What was measured:
Assay in all cases: NCI tumour cell line growth inhibition, 48 h
[1] = tested on: SNB-19
[2] = tested on: TK-10
[3] = tested on: RPMI-8226
[4] = tested on: UACC-62
[5] = tested on: EKVX
[6] = tested on: RXF 393
[7] = tested on: UO-31
[8] = tested on: SF-295
[9] = tested on: MOLT-4
[10] = tested on: SK-MEL-2
[11] = tested on: CAKI-1
[12] = tested on: T47D
[13] = tested on: HOP-92
[14] = tested on: MDA-N
[15] = tested on: A549
[16] = tested on: OVCAR-3
[17] = tested on: NCI-H522
[18] = tested on: SK-MEL-28
[19] = tested on: IGROV-1
[20] = tested on: MCF7
[21] = tested on: HL-60
[22] = tested on: HT-29
[23] = tested on: SK-MEL-5
[24] = tested on: Malme-3M
[25] = tested on: NCI/ADR-RES
[26] = tested on: SW-620
[27] = tested on: CCRF-CEM
[28] = tested on: DU-145
[29] = tested on: NCI-H23
[30] = tested on: SNB-75
[31] = tested on: Hs-578T
[32] = tested on: OVCAR-4
[33] = tested on: K562
[34] = tested on: SR
[35] = tested on: SK-OV-3
[36] = tested on: MDA-MB-435
[37] = tested on: HCT-15
[38] = tested on: HCC 2998
[39] = tested on: ACHN
[40] = tested on: KM12
[41] = tested on: HOP-62
[42] = tested on: OVCAR-5
[43] = tested on: HCT-116
[44] = tested on: PC-3
[45] = tested on: M14
[46] = tested on: A498
[47] = tested on: NCI-H460
[48] = tested on: 786-0
[49] = tested on: U-251
[50] = tested on: SN12C
[51] = tested on: UACC-257
[52] = tested on: OVCAR-8
[53] = tested on: COLO 205
[54] = tested on: LOX IMVI
[55] = tested on: SF-268
[56] = tested on: MDA-MB-231

SMILES: CN(CCc1ccccn1)C(=S)N/N=C(\c1ccccc1)c1ccccn1
- GI50 [1]: 215 nM (active)
- GI50 [2]: 524 nM (active)
- GI50 [3]: < 10 nM (active)
- GI50 [4]: 230 nM (active)
- GI50 [5]: < 10 nM (active)
- GI50 [6]: 1090 nM (active)
- GI50 [7]: 19.2 nM (active)
- GI50 [8]: < 26.6 nM (active)
- GI50 [9]: < 10 nM (active)
- GI50 [10]: 1420 nM (inactive)
- GI50 [11]: < 10 nM (active)
- GI50 [12]: < 10 nM (active)
- GI50 [13]: 1730 nM (inactive)
- GI50 [14]: 582 nM (active)
- GI50 [15]: < 40.4 nM (active)
- GI50 [16]: < 10 nM (active)
- GI50 [17]: < 10 nM (active)
- GI50 [18]: 802 nM (active)
- GI50 [19]: < 10 nM (active)
- GI50 [20]: < 10 nM (active)
- GI50 [21]: < 10 nM (active)
- GI50 [22]: < 10 nM (active)
- GI50 [23]: 98.6 nM (active)
- GI50 [24]: < 10 nM (active)
- GI50 [25]: < 10 nM (active)
- GI50 [26]: < 10 nM (active)
- GI50 [27]: < 10 nM (active)
- GI50 [28]: 1410 nM (inactive)
- GI50 [29]: < 10 nM (active)
- GI50 [30]: 1300 nM (inactive)
- GI50 [31]: 1910 nM (inactive)
- GI50 [32]: 33.4 nM (active)
- GI50 [33]: < 10 nM (active)
- GI50 [34]: 48.9 nM (active)
- GI50 [35]: < 10 nM (active)
- GI50 [36]: 573 nM (active)
- GI50 [37]: < 10 nM
- GI50 [38]: 1520 nM (inactive)
- GI50 [39]: < 10 nM (active)
- GI50 [40]: 19.4 nM (active)
- GI50 [41]: < 21.5 nM (active)
- GI50 [42]: 1050 nM (active)
- GI50 [43]: < 10 nM (active)
- GI50 [44]: < 10 nM (active)
- GI50 [45]: < 39.4 nM (active)
- GI50 [46]: < 10 nM (active)
- GI50 [47]: < 10 nM (active)
- GI50 [48]: 41.9 nM (active)
- GI50 [49]: 10.1 nM (active)
- GI50 [50]: < 10 nM (active)
- GI50 [51]: < 10 nM (active)
- GI50 [52]: < 10 nM (active)
- GI50 [53]: < 10 nM (active)
- GI50 [54]: < 10 nM (active)

SMILES: CC(C)OCC(O)COc1ccc2ccc(=O)oc2c1 (stereo unspecified)
- GI50 [1]: > 100000 nM (inactive)
- GI50 [2]: > 100000 nM (inactive)
- GI50 [3]: > 100000 nM (inactive)
- GI50 [4]: > 100000 nM (inactive)
- GI50 [5]: > 100000 nM (inactive)
- GI50 [55]: > 100000 nM (inactive)
- GI50 [7]: > 100000 nM (inactive)
- GI50 [8]: > 100000 nM (inactive)
- GI50 [9]: > 100000 nM (inactive)
- GI50 [11]: > 100000 nM (inactive)
- GI50 [12]: > 100000 nM (inactive)
- GI50 [13]: > 100000 nM (inactive)
- GI50 [14]: > 100000 nM (inactive)
- GI50 [15]: > 100000 nM (inactive)
- GI50 [16]: > 100000 nM (inactive)
- GI50 [17]: > 100000 nM (inactive)
- GI50 [18]: > 100000 nM (inactive)
- GI50 [19]: > 100000 nM (inactive)
- GI50 [20]: > 100000 nM (inactive)
- GI50 [21]: > 100000 nM (inactive)
- GI50 [22]: > 100000 nM (inactive)
- GI50 [23]: > 100000 nM (inactive)
- GI50 [24]: > 100000 nM (inactive)
- GI50 [25]: > 100000 nM (inactive)
- GI50 [26]: > 100000 nM (inactive)
- GI50 [27]: > 100000 nM (inactive)
- GI50 [28]: > 100000 nM (inactive)
- GI50 [29]: > 100000 nM (inactive)
- GI50 [30]: > 100000 nM (inactive)
- GI50 [31]: > 100000 nM (inactive)
- GI50 [32]: > 100000 nM (inactive)
- GI50 [33]: > 100000 nM (inactive)
- GI50 [35]: > 100000 nM (inactive)
- GI50 [36]: > 100000 nM (inactive)
- GI50 [37]: > 100000 nM
- GI50 [38]: > 100000 nM (inactive)
- GI50 [39]: > 100000 nM (inactive)
- GI50 [40]: > 100000 nM (inactive)
- GI50 [41]: > 100000 nM (inactive)
- GI50 [42]: > 100000 nM (inactive)
- GI50 [43]: > 100000 nM (inactive)
- GI50 [44]: > 100000 nM (inactive)
- GI50 [45]: > 100000 nM (inactive)
- GI50 [47]: > 100000 nM (inactive)
- GI50 [48]: > 100000 nM (inactive)
- GI50 [49]: > 100000 nM (inactive)
- GI50 [50]: > 100000 nM (inactive)
- GI50 [56]: > 100000 nM (inactive)
- GI50 [51]: > 100000 nM (inactive)
- GI50 [52]: > 100000 nM (inactive)
- GI50 [53]: > 100000 nM (inactive)
- GI50 [54]: > 100000 nM (inactive)
